The text below walks through data of patent US12448388B2, “PRMT5 inhibitors and uses thereof” (Gilead Sciences, Inc., priority 2023, dated 2025).

A value given as a limit tells only on which side of the number the result lay.

The test system of the experiment is HCT116 MTAP-deleted cell lines. Briefly: Cell viability assay (CellTiter-Glo, 7 days), HCT116 MTAP-deleted. The format is cell-based. To be noted: Homo sapiens, HCT-116; cell viability, HCT116 MTAP-deleted; class symbols; read-out: CC50. How it is done: Control compounds were analyzed in parallel each time for quality control. In Brief, on Day -1, a serial dilution of stock compounds in DMSO was performed using BioMek liquid handlers and dispensed using Echo acoustic dispenser into 384 well plates. Both tool compounds and sample compounds were spotted in the same plate for a dose response of PRMT5 inhibitors. Compound plates were stored as frozen until the cells were ready for seeding. […] After equilibrating the plate in room temperature, the cells were incubated for 7 days inside the sealed incubator set at 37° C. with 90% humidity and 5% CO2. On Day 7, the viability of cells was measured using a CTG assay kit (CellTitre-Glo;Promega cat no. G7573). Shortly, 40 μl per well of luminescent cell viability assay reagent were dispensed using EL460 liquid dispenser 5 μl cassette. CTG luminescence signal was measured using an EnVision plate reader (PerkinElmer) in accordance with manufacturer's instruction. […] Selectivity with * is artificially high due to limited solubility of the compound hampering accurate measurement of WT CC50.
By CC50 is commonly meant the concentration at which the toxic effect on the cells reaches its halfway point. Consider `Nc1nc2ccc(C(=O)N3CCO[C@@H]4Cc5cc(C(F)(F)F)ccc5[C@@H]43)cc2n2cncc12` (racemic) [Ff-33, Racemic (4-aminoimidazo[1,5-a]quinoxalin-8-yl)((4aS,9aR)-7-(trifluoromethyl)-2,3,9,9a-tetrahydroindeno[2,1-b][1,4]oxazin-4(4aH)-yl)methanone], for which the CC50 was in the range of 100 to 1000 nM.

With `Nc1nc2cc(F)c(C(=O)N3CCO[C@@H]4Cc5cc(C(F)(F)F)ccc5[C@@H]43)cc2n2cncc12` (racemic) [Ff-34, Racemic (4-amino-7-fluoroimidazo[1,5-a]quinoxalin-8-yl)((4aS,9aR)-7-(trifluoromethyl)-2,3,9,9a-tetrahydroindeno[2,1-b][1,4]oxazin-4(4aH)-yl)methanone], the half-maximal cytotoxic concentration (CC50) was below 100 nM.

Regarding `Nc1nc2cc(Cl)c(C(=O)N3CCO[C@@H]4Cc5cc(C(F)(F)F)ccc5[C@@H]43)cc2n2cncc12` (racemic) [Ff-35, Racemic (4-amino-7-chloroimidazo[1,5-a]quinoxalin-8-yl)((4aS,9aR)-7-(trifluoromethyl)-2,3,9,9a-tetrahydroindeno[2,1-b][1,4]oxazin-4(4aH)-yl)methanone], the CC50 is below 100 nM.

As for `Nc1nc2cc(F)c(C(=O)N3CCO[C@@H]4Cc5ccccc5[C@@H]43)cc2n2cncc12` (racemic) [Ff-36, Racemic(4-amino-7-fluoroimidazo[1,5-a]quinoxalin-8-yl)((4aS,9aR)-2,3,9,9a-tetrahydroindeno[2,1-b][1,4]oxazin-4(4aH)-yl)methanone], the CC50 is 100 to 1000 nM.

With `Nc1nc2ccc(C(=O)N3CCO[C@@H]4Cc5cc(Br)ccc5[C@@H]43)cc2n2cncc12` (racemic) [Ff-37, Racemic (4-aminoimidazo[1,5-a]quinoxalin-8-yl)((4aS,9aR)-7-bromo-2,3,9,9a-tetrahydroindeno[2,1-b][1,4]oxazin-4(4aH)-yl)methanone], the CC50 lay within 100 to 1000 nM.

Turning to `C[C@@H]1OC[C@@H](N(C)C(=O)c2ccc3nc(N)c4cncn4c3c2)c2ccc(C(F)(F)F)cc21` (racemic) [Ff-41, Trans-4-amino-N-methyl-N-(trans-1-methyl-7-(trifluoromethyl)isochroman-4-yl)imidazo[1,5-a]quinoxaline-8-carboxamide], the CC50 was below 100 nM.

In the case of `C[C@H]1OC[C@@H](N(C)C(=O)c2ccc3nc(N)c4cncn4c3c2)c2ccc(C(F)(F)F)cc21` (racemic) [Ff-42, Cis-4-amino-N-methyl-N-(1-methyl-7-(trifluoromethyl)isochroman-4-yl)imidazo[1,5-a]quinoxaline-8-carboxamide], the CC50 was below 100 nM.

In the case of `C[C@H]1CN(C(=O)c2cc3c(cc2F)nc(N)c2cncn23)[C@H]2c3ccccc3C[C@H]2O1` (racemic) [Ff-55, Rac-(4-amino-7-fluoroimidazo[1,5-a]quinoxalin-8-yl)((2S,4aS,9aR)-2-methyl-2,3,9,9a-tetrahydroindeno[2,1-b][1,4]oxazin-4(4aH)-yl)methanone], the CC50 was below 100 nM.

Consider `C[C@@H]1CN(C(=O)c2cc3c(cc2F)nc(N)c2cncn23)[C@H]2c3ccccc3C[C@H]2O1` (racemic) [Ff-56, Rac-(4-amino-7-fluoroimidazo[1,5-a]quinoxalin-8-yl)((2R,4aS,9aR)-2-methyl-2,3,9,9a-tetrahydroindeno[2,1-b][1,4]oxazin-4(4aH)-yl)methanone], for which the CC50 was 100 to 1000 nM.

For the molecule `COc1ccc2c(c1)CO[C@H]1CCN(C(=O)c3cc4c(cc3F)nc(N)c3cncn34)[C@@H]21` (racemic) [Ff-67, Rac-(4-amino-7-fluoroimidazo[1,5-a]quinoxalin-8-yl)((3aS,9bS)-7-methoxy-3,3a,5,9b-tetrahydroisochromeno[4,3-b]pyrrol-1(2H)-yl)methanone], the CC50 was 100 to 1000 nM.

On to `Nc1nc2ccc(C(=O)N3CC[C@H]4C[C@@H]3c3ccc(C(F)(F)F)cc34)cc2n2cncc12` (racemic) [Ff-74, (Rac)-(4-aminoimidazo[1,5-a]quinoxalin-8-yl)(7-(trifluoromethyl)-1,3,4,5-tetrahydro-2H-1,5-methanobenzo[c]azepin-2-yl)methanone], for which the CC50 is 100 to 1000 nM.
